From patent publication US8841276B2, “Fulvene and fulvalene analogs and their use in treating cancers” (Emory University, priority 2007, dated 2014)

How the values were obtained:
[1] = system: light-induced retinal function loss; set-up: species or system Balb-C mice; conditions: mouse, in vivo
Protocol: Balb-C mice were exposed to dim (20 lux) or bright (10,000 lux) white light for 6 hours. Mice were injected with Fulvene-5, a triphenylmethane that inhibits NADPH oxidase, dissolved in vehicle (intralipid-DMSO) or vehicle alone. Intraperitoneal injections were given daily for two weeks. Electroretinograms (ERGs) were taken 0, 7, and 14 days following light exposure. Mice were exposed to either dim light (control) or bright light of an intensity that causes retinal degeneration (Light Induced Retinal Degeneration; LIRD). This is a classic rodent model of retinal degeneration. For each lighting condition, half the animals were injected with vehicle and the other half were injected with Fulvene 5. Electroretinograms (ERGs) of the treated mice were measured at one week post-exposure. An ERG is a measure of the change in electrical potential across the eyeball in response to a flash of light, and is used as an indication of retinal function.

Nox2 enzyme = molecular target: T1, Nox2 enzyme (Homo sapiens, UniProt P04839); assay: Inhibition of Nox2 enzyme: H2O2 production in PMA-stimulated Cos-phox cells (homovanillic acid assay); format: cell-based; conditions: 1 μM, 5 μM, or 20 μM, FIG. 1
T1 construct: expressed in transfected cells; host or cells: Cos-phox cells (COS-7 derived, per the cited Price et al. 2002; own knowledge)
T1 sequence (P04839 2-570 limits assumed): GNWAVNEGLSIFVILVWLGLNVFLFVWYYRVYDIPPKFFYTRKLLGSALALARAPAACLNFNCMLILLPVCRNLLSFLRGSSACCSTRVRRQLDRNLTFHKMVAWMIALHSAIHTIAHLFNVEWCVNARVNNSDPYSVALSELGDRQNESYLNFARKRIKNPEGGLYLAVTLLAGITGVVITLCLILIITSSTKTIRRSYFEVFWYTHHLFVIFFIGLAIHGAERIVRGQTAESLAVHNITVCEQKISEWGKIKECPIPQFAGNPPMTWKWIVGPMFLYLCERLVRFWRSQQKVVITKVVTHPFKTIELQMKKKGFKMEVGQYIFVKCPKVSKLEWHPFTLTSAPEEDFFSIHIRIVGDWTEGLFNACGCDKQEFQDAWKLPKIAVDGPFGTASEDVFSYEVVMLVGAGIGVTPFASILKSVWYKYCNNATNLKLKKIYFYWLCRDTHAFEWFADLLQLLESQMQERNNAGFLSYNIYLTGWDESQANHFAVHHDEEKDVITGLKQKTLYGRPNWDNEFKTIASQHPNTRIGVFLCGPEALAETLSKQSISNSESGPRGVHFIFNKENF
T1 sequence (P13498 2-195 partner limits assumed): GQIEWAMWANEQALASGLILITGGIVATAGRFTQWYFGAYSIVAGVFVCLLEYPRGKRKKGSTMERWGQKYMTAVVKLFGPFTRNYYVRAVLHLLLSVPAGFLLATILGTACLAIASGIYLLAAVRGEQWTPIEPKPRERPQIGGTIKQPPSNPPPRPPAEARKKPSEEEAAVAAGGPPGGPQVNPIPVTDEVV
Protocol: Various test compounds were examined for activity against Nox2 enzyme by determining hydrogen peroxide (H2O2) production in phorbol 12-myristate 13-acetate (PMA)-stimulated Cos-phox cells treated with different concentrations of vehicle control or a test compound listed in Table 1.
Cos-phox cells have been described previously in Price et al., Blood, 99: 2653-61 (2002), which is incorporated herein by reference.
H2O2 release was measured using the homovanillic acid assay as described previously in Martyn et al., Cellular Signalling, 18:69-82 (2006) and Perry et al., J. Invest. Dermatol., 126:2316-22 (2006), which are incorporated herein by reference. Briefly, 1.5-1.75×10^5 cells/well of a 12-well plate were seeded with Cos-phox cells. The following day, cells were washed once with Hank's balanced salt solution, stimulated with […] phorbol 12-myristate 13-acetate (PMA), and then preincubated for 15 minutes with either vehicle control or different concentrations (i.e., 1 μM, 5 μM, or 20 μM) of test compound no. 8, 10, 15, 16, 17, or 18 in 1 ml of media. The cells were then washed once with Hank's balanced salt solution. Vehicle control or different concentrations of test compound no. […] Fluorescence was read on a BioTek Synergy HT (BioTek Instruments Inc., Winooski, Vt., CA) with an excitation of 320 nm and emission of 440 nm. […]

Compound | Suppression of ERG b-wave amplitude [1] | Effect of bright light exposure on retinal function as measured by ERG ([1]; ip) | Inhibition of Nox2 enzyme (production of H2O2 relative to untreated control) (Nox2 enzyme)
Cc1[nH]cnc1C=C1C=CC=C1 [Test compound 10, 4-(cyclopenta-2,4-dienylidinemethyl)-5-methyl-1H-imidazole] | no suppression of ERG amplitude | precluded the damaging effects of bright light exposure on retinal function | 
CN(C)C=C1C=CC=C1 [compound 8] |  |  | inhibited Nox2 enzyme in a dose-dependent manner
